# Measurements reported in patent US20250179589A1, “SYNTHETIC LETHALITY AND THE TREATMENT OF CANCER” (PACYLEX PHARMACEUTICALS INC., priority 2012, published 2025).
# How the values were obtained:
# [1] = Intrinsic clearance Cli, mouse; type: in vitro ADME
# Fu plasma, mouse = type: in vitro ADME
# [2] = tested on: BL-2 (Burkitt's lymphoma) cells; experiment: MTS cell viability assay; type: cell-based, human
# Protocol: (§1) […]. The drugs were dissolved in DMSO to make 100× stock solutions for each concentration tested, so that the final volume of DMSO in each well was 1%. MTS [(3-(4,5-dimethylthiazol-2-yl)-5-(3-carboxymethoxyphenyl)-2-(4-sulfophenyl)-2H-tetrazolium)] assay was used to measure the cytotoxicity of the drug (Cory et al., 1991).
# (§2) In FIG. 9, Panel B, DDD86481 was used to treat BL cells and control cell lines [IM9 (“normal” B lymphocyte) and KMH2 (HL cell line) that expresses both NMTs]. […]. The EC50 data are summarized as follows.
# [3] = tested on: Ramos (Burkitt's lymphoma) cells; experiment: MTS cell viability assay; type: cell-based, human
# Protocol: as §1, §2
# [4] = tested on: myristoylation in Ramos cells; experiment: Inhibition of myristoylation, alkynyl-myristate labeling and click chemistry; type: cell-based, human; details: 2 h treatment
# Protocol: (§3) Cells were labeled with 100 to 25 μM ω-alkynyl myristic acid 30 min prior to harvesting the cells and lysed in 0.1% SDS-RIPA-HEPES buffer. Protein (50-30 μg) from the resulting cell lysates were reacted with 100 μM azido-biotin using click chemistry and processed as described previously (Yap et al., 2010). Briefly, cells were starved of fatty acids by incubating in media (RPMI or DMEM) which were supplemented with 5% dextran-coated charcoal-treated FBS (DCC-FBS) for 1 h prior to labeling. Next, ω-alkynyl-myristic acid was dissolved in DMSO to generate 25 or 100 mM stock solutions. Typically, the cellular uptake of ω-alkynyl myristic acid typically was improved with saponification and conjugation to BSA. Therefore, prior to labeling, ω-alkynyl myristic acid was saponified with 20% molar excess of potassium hydroxide at 65° C. for 15 min. Next, serum-free culture media (pre-warmed) containing 20% fatty acid-free BSA at 37° C. was added to the saponified ω-alkynyl myristic acid and incubated for an additional 15 min at 37° C.
# Subsequently, cells deprived of fatty acids were washed once with warm PBS and incubated in fresh RPMI or DMEM without any supplements. […]
# (§4) In FIG. 9 E, the minimal dose of DDD86481 required to inhibit myristoylation in IM-9, BL2 and Ramos cell lines, was determined. […]
# [5] = tested on: myristoylation in BL2 cells; experiment: as above; type: cell-based, human
# Protocol: as §3
# (§5) Subsequently, cells deprived of fatty acids were washed once with warm PBS and incubated in fresh RPMI or DMEM without any supplements. Next, the appropriate volume of 20× fatty acid-BSA conjugate in serum-free media was added to the cells, to ensure that the final concentration of BSA was 1% and Q-alkynyl myristic acid was at the indicated concentration (25 μM or 100 μM) for each respective experiment. DMSO or unlabeled fatty acids conjugated to BSA were used as controls for the experiments performed. Cells were labeled with ω-alkynyl myristic acid for 30 min at 37° C. in a 5% CO2 humidified incubator prior to harvesting. Cells were harvested in 0.1% SDS-RIPA-HEPES buffer that was supplemented with 1× complete protease inhibitor (EDTA-free).
# (§6) After labeling cells with ω-alkynyl myristic acid, the resulting lysates were subjected to click chemistry with azido-biotin to enable the detection of the myristoylated proteins by ECL as described previously (Yap et al., 2010). Typically, cell lysates (30-50 μg of protein) were adjusted to contain 1% SDS and incubated with 100 μM Tris-(benzyltriazolylmethyl)amine (TBTA), 1 mM CuSO4, 1 mM Tris-carboxyethylphosphine (TCEP), and 100 μM azido-biotin at 37° C. for 30 min in darkness, in order for the click reaction to proceed. Next, 10 volumes of ice-cold acetone was added to stop the click reaction and proteins were precipitated at −20° C. overnight. Subsequently, the acetone precipitated proteins were centrifuged at 16,000 g for 10 min, resuspended in 1×SDS-PAGE sample buffer with 20 mM DTT. […]
# as §4
# [6] = tested on: myristoylation in IM-9 cells; experiment: as above; type: cell-based, human
# Protocol: as §3, §5, §6, §4
# [7] = Intrinsic clearance Cli, rat; type: in vitro ADME
# [8] = tested on: KMH2 (Hodgkin's lymphoma) cells; experiment: MTS cell viability assay; type: cell-based; details: Homo sapiens, KM-H2, 72 h
# Protocol: as §1, §2
# [9] = tested on: IM-9 ("normal" EBV immortalized B cell); experiment: MTS cell viability assay; type: cell-based; details: Homo sapiens
# Protocol: as §1, §2
# [10] = tested on: "Normal" immortalized B lymphocytes (IM9); experiment: Induction of apoptosis, PARP-1 and caspase-3 cleavage by western blotting; type: cell-based, human; details: IM9, 72 h
# Protocol: (§7) “Normal” immortalized B lymphocytes (IM9), KMH2 (Hodgkin's lymphoma) and BL (BL2 and Ramos) cells were incubated with increasing concentrations (nM) of DDD86481 and monitored the cleavage of poly-ADP-ribose polymerase-1 (PARP-1) and caspase-3 after the 72 h time point. Western blotting was performed on cell lysates to monitor the cleavage or PARP-1 and caspase-3 as well as the presence of GAPDH as loading control (composite gels).
# BL (BL2 and Ramos) cells = experiment: as above; type: cell-based, human; details: BL cell lines, 72 h
# Protocol: as §7
# [11] = tested on: KMH2 (Hodgkin's lymphoma) cells; experiment: as above; type: cell-based, human; details: KMH2, 72 h
# Protocol: as §7
# B:B Ratio = type: in vivo; details: brain / blood
# [12] = Mouse PO pharmacokinetics 10 mg/kg; details: in vivo, PO 10 mg/kg, [ ] = range
# [13] = Intrinsic clearance Cli, human; type: in vitro ADME
# [14] = Mouse IV pharmacokinetics; type: in vivo; details: whole blood, [ ] = range; for Vd: read-out: Vss
# hERG = hERG (Homo sapiens, UniProt Q12809); experiment: hERG (patch clamp); type: cell-based
# hERG, sequence (Q12809 whole entry): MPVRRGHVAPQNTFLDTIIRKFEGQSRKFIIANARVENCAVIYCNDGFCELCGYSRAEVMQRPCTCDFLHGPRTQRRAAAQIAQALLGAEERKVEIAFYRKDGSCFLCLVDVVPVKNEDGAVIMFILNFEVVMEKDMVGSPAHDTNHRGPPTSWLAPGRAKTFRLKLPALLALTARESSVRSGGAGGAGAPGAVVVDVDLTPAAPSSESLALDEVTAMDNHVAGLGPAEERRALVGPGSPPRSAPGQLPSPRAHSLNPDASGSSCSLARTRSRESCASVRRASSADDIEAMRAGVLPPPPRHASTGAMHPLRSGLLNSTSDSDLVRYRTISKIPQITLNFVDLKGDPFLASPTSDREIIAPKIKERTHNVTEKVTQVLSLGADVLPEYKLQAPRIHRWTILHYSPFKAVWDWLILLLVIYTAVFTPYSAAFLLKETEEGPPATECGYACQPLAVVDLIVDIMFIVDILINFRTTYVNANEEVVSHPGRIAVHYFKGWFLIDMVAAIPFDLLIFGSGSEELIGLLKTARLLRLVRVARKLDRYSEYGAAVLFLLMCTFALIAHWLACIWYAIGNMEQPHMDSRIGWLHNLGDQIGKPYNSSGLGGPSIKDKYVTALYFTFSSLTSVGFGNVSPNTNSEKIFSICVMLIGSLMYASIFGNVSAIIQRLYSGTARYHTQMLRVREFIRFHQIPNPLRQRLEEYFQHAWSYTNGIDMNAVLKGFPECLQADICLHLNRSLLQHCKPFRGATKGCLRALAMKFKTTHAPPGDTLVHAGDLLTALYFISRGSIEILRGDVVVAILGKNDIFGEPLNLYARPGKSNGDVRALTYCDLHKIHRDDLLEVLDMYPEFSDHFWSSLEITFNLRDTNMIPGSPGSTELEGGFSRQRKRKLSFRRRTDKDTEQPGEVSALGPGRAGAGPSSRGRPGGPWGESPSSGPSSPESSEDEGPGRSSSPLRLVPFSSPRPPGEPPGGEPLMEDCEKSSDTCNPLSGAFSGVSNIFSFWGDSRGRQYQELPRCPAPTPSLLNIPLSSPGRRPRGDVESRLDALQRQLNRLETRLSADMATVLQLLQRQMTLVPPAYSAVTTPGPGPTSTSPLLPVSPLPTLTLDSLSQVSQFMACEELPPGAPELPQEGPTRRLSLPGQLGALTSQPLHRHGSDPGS
# Fu plasma, human = type: in vitro ADME
# [15] = tested on: KMH2 (Hodgkin's lymphoma) cells; experiment: Trypan blue exclusion cell viability assay; type: cell-based; details: Homo sapiens, KM-H2, 72 h
# Protocol: (§8) Cell viability assay. B and T cell viability was measured using the trypan blue exclusion method. Cells were grown in confluency conditions (2×10^6 cells/mL maximum) assuring the minimum basal apoptosis. […] Cell viability was quantified using the TC10™ automated cell counter (Biorad).
# (§9) […]. The drugs were dissolved in DMSO to make 100× stock solutions for each concentration tested, so that the final volume of DMSO in each well was 1%. The viability of cells treated with these inhibitors was measured with a trypan blue exclusion assay (Hudson, 1976).
# (§10) Cell viability was then quantified using the TC10™ automated cell counter (Biorad).
# [16] = tested on: IM-9 ("normal" EBV immortalized B cell); experiment: Trypan blue exclusion cell viability assay; type: cell-based; details: Homo sapiens, IM-9 cells, 72 h
# Protocol: as §8, §9, §10
# Caco-2 permeability Papp = type: in vitro ADME; details: human
# CYP450 2C19 = CYP450 2C19 (Homo sapiens, UniProt P33261); experiment: CYP450 inhibition; type: in vitro ADME; details: 2C19, at 1 uM
# CYP450 2C19, sequence (P33261 whole entry): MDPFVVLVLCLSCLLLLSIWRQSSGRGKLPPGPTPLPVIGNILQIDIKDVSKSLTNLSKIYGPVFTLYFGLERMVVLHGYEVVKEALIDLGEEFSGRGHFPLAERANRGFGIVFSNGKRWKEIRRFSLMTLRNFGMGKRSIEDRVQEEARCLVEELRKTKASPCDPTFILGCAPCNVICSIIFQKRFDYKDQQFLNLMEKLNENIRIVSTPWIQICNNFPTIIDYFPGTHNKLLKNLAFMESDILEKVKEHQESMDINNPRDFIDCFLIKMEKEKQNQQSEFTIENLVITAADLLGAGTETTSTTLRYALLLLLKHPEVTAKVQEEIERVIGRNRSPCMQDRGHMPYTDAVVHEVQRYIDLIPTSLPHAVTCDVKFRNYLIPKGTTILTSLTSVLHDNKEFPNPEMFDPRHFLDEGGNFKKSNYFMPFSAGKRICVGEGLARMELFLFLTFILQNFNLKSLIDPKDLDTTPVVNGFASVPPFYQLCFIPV
# [17] = tested on: BL-2 (Burkitt's lymphoma) cells; experiment: Trypan blue exclusion cell viability assay; type: cell-based, human
# Protocol: as §8
# (§11) The drugs were dissolved in DMSO to make 100× stock solutions for each concentration tested, so that the final volume of DMSO in each well was 1%.
# as §10
# [18] = tested on: Ramos (Burkitt's lymphoma) cells; experiment: Trypan blue exclusion cell viability assay; type: cell-based, human; details: Homo sapiens, 72 h
# Protocol: as §8, §11, §10
# Fu Brain = type: in vitro ADME
# Pgp = target: T1, Pgp (Homo sapiens, UniProt P08183); experiment: Pgp efflux, Caco-2; type: in vitro ADME
# T1 construct: endogenous in cells; host or cells: Caco-2
# T1 sequence (P08183 whole entry): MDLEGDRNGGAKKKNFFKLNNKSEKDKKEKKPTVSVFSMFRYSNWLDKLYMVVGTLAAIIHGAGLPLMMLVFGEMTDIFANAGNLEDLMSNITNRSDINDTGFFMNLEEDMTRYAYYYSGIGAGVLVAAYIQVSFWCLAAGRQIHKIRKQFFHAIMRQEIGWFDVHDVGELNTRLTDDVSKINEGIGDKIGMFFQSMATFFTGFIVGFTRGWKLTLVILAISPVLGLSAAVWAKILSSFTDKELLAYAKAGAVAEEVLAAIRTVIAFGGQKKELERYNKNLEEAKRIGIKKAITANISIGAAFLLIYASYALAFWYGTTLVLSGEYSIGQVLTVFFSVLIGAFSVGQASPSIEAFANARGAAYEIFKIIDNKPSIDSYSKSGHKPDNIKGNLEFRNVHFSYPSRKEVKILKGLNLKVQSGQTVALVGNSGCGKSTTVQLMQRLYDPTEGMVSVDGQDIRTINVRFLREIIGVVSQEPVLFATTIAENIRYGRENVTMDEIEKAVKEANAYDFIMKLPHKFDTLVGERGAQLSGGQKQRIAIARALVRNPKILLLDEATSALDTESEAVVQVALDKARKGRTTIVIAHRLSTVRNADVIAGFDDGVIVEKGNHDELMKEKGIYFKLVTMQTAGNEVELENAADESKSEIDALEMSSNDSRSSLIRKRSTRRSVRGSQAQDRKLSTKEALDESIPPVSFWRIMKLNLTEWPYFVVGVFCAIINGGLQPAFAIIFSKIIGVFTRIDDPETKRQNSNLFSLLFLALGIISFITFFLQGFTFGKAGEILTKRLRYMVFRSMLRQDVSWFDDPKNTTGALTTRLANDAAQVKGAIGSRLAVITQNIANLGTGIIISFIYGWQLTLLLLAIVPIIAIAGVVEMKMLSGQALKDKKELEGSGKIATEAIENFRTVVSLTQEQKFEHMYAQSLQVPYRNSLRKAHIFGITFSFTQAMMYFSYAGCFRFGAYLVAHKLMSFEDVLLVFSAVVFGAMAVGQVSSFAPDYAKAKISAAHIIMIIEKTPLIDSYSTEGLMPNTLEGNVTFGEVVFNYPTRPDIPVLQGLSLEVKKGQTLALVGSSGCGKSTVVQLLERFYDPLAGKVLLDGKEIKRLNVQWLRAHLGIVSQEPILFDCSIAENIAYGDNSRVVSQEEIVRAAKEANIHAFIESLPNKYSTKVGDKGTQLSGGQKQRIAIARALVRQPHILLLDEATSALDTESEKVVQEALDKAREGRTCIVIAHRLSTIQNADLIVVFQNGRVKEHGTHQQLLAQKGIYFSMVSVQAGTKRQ
smiles,measurement,setting,value
Cc1c(NS(=O)(=O)c2c(Cl)cc(-c3ccnc(N4CCNCC4)c3)cc2Cl)c(CC(C)C)nn1C [DDD86481],Cli Mouse,[1],<0.5 mL/min/g
same,fraction unbound,"Fu plasma, mouse",0.067
same,times more sensitive than cells expressing both NMTs,"[2]; BL-2 and Ramos vs immortalized ""normal"" B cells or KMH2, MTS",15-72 times
same,EC90,"[2]; Homo sapiens, BL2",210 nM
same,EC50,"[2]; Homo sapiens, BL2, 72 h",58 nM
same,EC90,"[3]; Homo sapiens, Ramos",400 nM
same,EC50,"[3]; Homo sapiens, Ramos, 72 h",42 nM
same,factor by which cancer cells are preferentially killed,"[3]; ratios of the EC50's and EC90's, normal B cell line vs Burkitt lymphoma cell lines",> 300 fold
same,minimal dose at which incorporation of alkyne-myristate label decreases,[4],50 nM
same,inhibition of myristoylation,"[5]; BL2, 1 μM, after one hour of treatment",nearly complete inhibition of myristoylation
same,minimal dose at which incorporation of alkyne-myristate label decreases,"[5]; BL-2, 2 h treatment",50 nM
same,inhibition of myristoylation,"[6]; IM-9, 1 μM, after one hour of treatment",nearly complete inhibition of myristoylation
same,minimal dose at which incorporation of alkyne-myristate label decreases,"[6]; IM-9, 2 h treatment",100 nM
same,Cli Rat,[7],1.0 mL/min/g
same,EC50,[8],12600 nM
same,EC90,"[9]; IM-9, IM9 cells, calculated from FIG. 9B",134000 nM
same,EC50,"[9]; IM-9 cells, 72 h, MTS",2200 nM
same,PARP-1 and caspase-3 cleavage,[10],No PARP-1 or caspase-3 cleavage was observed
same,PARP-1 and caspase-3 cleavage,BL (BL2 and Ramos) cells,occurred in a dose-dependent fashion
same,PARP-1 cleavage,[11],"observed at higher concentrations, although it was minimal"
same,Kp,B:B Ratio,0.04
same,Cmax,[12],11200 ng/mL
same,Tmax,[12],2 h
same,half-life,[12],5.7 h
same,Cli Human,[13],0.7 mL/min/g
same,half-life,[14],1.5 h
same,Vd,[14],0.4 L/kg
Cc1nn(C)c(C)c1NS(=O)(=O)c1c(Cl)cc(-c2ccnc(N3CCNCC3)c2)cc1Cl [DDD85646],hERG (patch clamp),hERG,27.7
same,Cli Mouse,[1],0.6 mL/min/g
same,fraction unbound,"Fu plasma, human",0.176
same,EC50,[15],29600 nM
same,EC50,[16],7080 nM
same,Papp A→B,Caco-2 permeability Papp,4.3 ×10⁻⁶ cm/s
same,CYP450 inhibition,CYP450 2C19,2C19 (19% at 1 uM)
same,Cli Rat,[7],0.5 mL/min/g
same,times more sensitive than cells expressing both NMTs,"[17]; BL-2 and Ramos vs immortalized ""normal"" B cells or KMH2, trypan blue",15-72 times
same,EC50,"[17]; Homo sapiens, BL2, 72 h",430 nM
same,EC50,[18],370 nM
same,fraction unbound,Fu Brain,0.068
same,Pgp,Pgp,YES (Efflux ratio =
same,Cmax,[12],2690 ng/mL
same,Tmax,[12],0.25 h
same,Cli Human,[13],1.2 mL/min/g
same,half-life,[14],1.3 h
same,Vd,[14],0.6 L/kg
